Where two headings read alike, the source gives them in different places. Numbered stars: 1 amine (or outer) side, 2 acyl side, 3 side chain; on linkers, the order of the positions; unused ones are H or OH. Square brackets hold non-standard residues; d marks the D form. Side chains are listed from the residue outwards. Peptide text beside a SMILES is read from it. * marks the point of attachment. γGlu = O=C(O)[C@H](CCC(=O)[*:2])N[*:1]; Stearoyl = CCCCCCCCCCCCCCCCCC(=O)*; Palmitoyl = CCCCCCCCCCCCCCCC(=O)*; αMeF = C[C@](N)(Cc1ccccc1)C(=O)O; Myristoyl = CCCCCCCCCCCCCC(=O)*; αMeK = C[C@](N)(CCCCN)C(=O)O; αMeS = C[C@](N)(CO)C(=O)O; AEEA = NCCOCCOCC(=O)O; Aib = CC(C)(N)C(=O)O
Assays:
Assay type in all cases: cell-based
[1] = molecular target: T1, human glucagon receptor (GCGR) (Homo sapiens, UniProt P47871); assay: cAMP assay, human GCGR cells; conditions: cAMP assay
T1 construct: expressed in transfected cells
T1 sequence (P47871 26-477): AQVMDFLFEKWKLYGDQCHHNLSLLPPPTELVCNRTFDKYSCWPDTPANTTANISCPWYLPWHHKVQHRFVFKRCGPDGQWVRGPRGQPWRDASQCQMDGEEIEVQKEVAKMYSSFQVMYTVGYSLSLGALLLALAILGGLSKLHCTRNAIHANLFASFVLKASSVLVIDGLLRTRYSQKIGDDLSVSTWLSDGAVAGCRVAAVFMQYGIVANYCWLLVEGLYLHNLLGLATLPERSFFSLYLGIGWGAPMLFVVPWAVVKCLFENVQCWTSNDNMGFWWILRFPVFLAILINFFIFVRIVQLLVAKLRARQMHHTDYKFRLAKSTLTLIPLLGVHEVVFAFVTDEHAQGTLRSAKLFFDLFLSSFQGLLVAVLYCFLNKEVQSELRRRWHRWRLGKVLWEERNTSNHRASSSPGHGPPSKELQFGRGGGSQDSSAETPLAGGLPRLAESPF
Outline: (§1)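 Peptide-stimulated cAMP measured by two-step HTRF after a 30 min room-temperature incubation with receptor-expressing cells (hGLP-1R, hGIPR at 1×10^5 cells/ml; hGCGR at 2×10^5 cells/ml). Duplicate dilutions; EC50 from 4-parameter logistic fit of % Delta F.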

[2] = molecular target: T2, human glucose-dependent insulinotropic peptide receptor (GIPR) (Homo sapiens, UniProt P48546); assay: cAMP assay, human GIPR cells; conditions: cAMP assay
T2 construct: expressed in transfected cells
T2 sequence (P48546 22-466): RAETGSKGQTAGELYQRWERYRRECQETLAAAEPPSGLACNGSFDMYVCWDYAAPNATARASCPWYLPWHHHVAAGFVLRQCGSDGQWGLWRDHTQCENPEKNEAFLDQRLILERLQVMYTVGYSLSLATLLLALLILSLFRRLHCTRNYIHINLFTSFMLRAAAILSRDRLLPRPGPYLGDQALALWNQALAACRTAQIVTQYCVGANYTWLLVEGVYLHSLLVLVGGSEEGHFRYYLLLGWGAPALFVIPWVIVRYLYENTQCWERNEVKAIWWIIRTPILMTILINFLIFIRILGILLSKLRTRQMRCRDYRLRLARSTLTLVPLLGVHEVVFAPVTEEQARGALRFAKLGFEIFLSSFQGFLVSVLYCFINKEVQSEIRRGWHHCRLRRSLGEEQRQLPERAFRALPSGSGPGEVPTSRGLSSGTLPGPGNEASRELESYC
Outline: as §1

GLP-1R (INS1e assay) = molecular target: T3, GLP-1R (INS1e assay) (Rattus norvegicus, UniProt P32301); assay: INS1e assay, cAMP activity at GLP-1R
T3 construct: endogenous in cells; host or cells: INS-1E cells
T3 sequence (P32301 22-463): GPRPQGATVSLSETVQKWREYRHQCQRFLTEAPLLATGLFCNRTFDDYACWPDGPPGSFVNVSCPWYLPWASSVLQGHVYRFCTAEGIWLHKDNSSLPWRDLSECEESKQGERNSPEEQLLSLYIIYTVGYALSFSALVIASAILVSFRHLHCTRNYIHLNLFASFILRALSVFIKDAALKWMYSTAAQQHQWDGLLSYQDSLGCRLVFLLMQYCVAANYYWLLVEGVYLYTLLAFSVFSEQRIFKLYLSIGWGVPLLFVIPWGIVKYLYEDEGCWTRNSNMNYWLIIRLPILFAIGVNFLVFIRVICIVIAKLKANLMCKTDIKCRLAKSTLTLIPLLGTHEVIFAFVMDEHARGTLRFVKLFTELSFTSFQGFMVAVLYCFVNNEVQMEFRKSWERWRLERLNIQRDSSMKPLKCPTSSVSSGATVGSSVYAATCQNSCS
Procedure: cAMP levels are measured using a commercially available cAMP dynamic 2 HTRF kit (Cisbio, Cat #62AM4PEJ), following the two step protocol as per manufacturer's recommendations. In brief; anti-cAMP cryptate (donor fluorophore) and cAMP-d2 (acceptor fluorophore) are made up separately by diluting each 1/20 in conjugate & lysis buffer provided in the kit. 5 μL anti-cAMP cryptate is added to wells of the assay plate, and 5 μL cAMP-d2 is added to wells except non-specific binding (NSB) wells, to which conjugate and lysis buffer are added. […] EC50 values of the synthetic peptides determined in cAMP assays are then determined.

[3] = molecular target: T4, human GLP-1 receptor (GLP-1R) (Homo sapiens, UniProt P43220); assay: cAMP assay, human GLP-1R cells; conditions: bis-lipidated peptides
T4 construct: expressed in transfected cells
T4 sequence (P43220 24-463): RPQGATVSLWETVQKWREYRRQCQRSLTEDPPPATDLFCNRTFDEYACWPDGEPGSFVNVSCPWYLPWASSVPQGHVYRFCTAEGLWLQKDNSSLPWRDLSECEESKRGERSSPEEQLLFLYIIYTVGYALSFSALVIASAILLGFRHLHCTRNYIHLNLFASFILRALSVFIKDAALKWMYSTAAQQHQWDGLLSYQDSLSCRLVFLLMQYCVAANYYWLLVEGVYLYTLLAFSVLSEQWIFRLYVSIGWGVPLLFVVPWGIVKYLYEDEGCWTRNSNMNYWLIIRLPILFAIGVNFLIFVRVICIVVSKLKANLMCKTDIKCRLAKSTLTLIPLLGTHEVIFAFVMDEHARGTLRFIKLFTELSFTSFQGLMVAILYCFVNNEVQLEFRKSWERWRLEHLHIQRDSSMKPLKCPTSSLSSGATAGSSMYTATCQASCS
Outline: as §1

[4] = first determination (n1), read-out: Primary assay EC50 Gluc-R (n1)
[5] = second determination (n2), read-out: Primary assay EC50 Gluc-R (n2)
[6] = first determination (n1), read-out: Primary assay EC50 GIP-R (n1)
[7] = second determination (n2), read-out: Primary assay EC50 GIP-R (n2)
[8] = mono-lipidated peptides, mean of n1 and n2, read-out: INS1e assay EC50 Mean pM GLP-1R
[9] = mono-lipidated peptides, replicate n1, read-out: INS1e assay EC50 GLP-1R n1
[10] = mono-lipidated peptides, replicate n2, read-out: INS1e assay EC50 GLP-1R n2
[11] = mean of n1 and n2, read-out: Primary assay EC50 Mean pM GLP-1R
[12] = replicate n1, read-out: Primary assay EC50 GLP-1R n1
[13] = replicate n2, read-out: Primary assay EC50 GLP-1R n2
[14] = bis-lipidated peptides, mean of n1 and n2, read-out: INS1e assay EC50 Mean pM GLP-1R
[15] = bis-lipidated peptides, replicate n1, read-out: INS1e assay EC50 GLP-1R n1
[16] = bis-lipidated peptides, replicate n2, read-out: INS1e assay EC50 GLP-1R n2

EC50 [1, 4] [nM] | EC50 [1, 5] [nM] | EC50 [2, 6] [nM] | EC50 [2, 7] [nM] | EC50 (GLP-1R (INS1e assay); [8]) [pM] | EC50 (GLP-1R (INS1e assay); [9]) [pM] | EC50 (GLP-1R (INS1e assay); [10]) [pM] | EC50 [3, 11] [pM] | EC50 [3, 12] [pM] | EC50 [3, 13] [pM] | EC50 (GLP-1R (INS1e assay); [14]) [pM] | EC50 (GLP-1R (INS1e assay); [15]) [pM] | EC50 (GLP-1R (INS1e assay); [16]) [pM] | SMILES
≥ 31 | ≥ 31 | ≥ 31 | ≥ 31 | 13 | 16 | 10.5 |  |  |  |  |  |  | CC[C@H](C)[C@H](NC(=O)[C@](C)(Cc1ccccc1)NC(=O)[C@H](CCC(=O)O)NC(=O)[C@](C)(CCCCN)NC(=O)[C@H](C)NC(=O)[C@H](C)NC(=O)[C@H](CCC(=O)O)NC(=O)CNC(=O)[C@H](CCC(=O)O)NC(=O)[C@H](CC(C)C)NC(=O)[C@](C)(Cc1ccccc1)NC(=O)[C@H](CO)NC(=O)[C@](C)(CO)NC(=O)[C@@H](NC(=O)[C@H](CC(=O)O)NC(=O)[C@H](CO)NC(=O)[C@@H](NC(=O)[C@](C)(Cc1ccccc1)NC(=O)[C@H](CO)NC(=O)CNC(=O)[C@H](CCC(=O)O)NC(=O)C(C)(C)NC(=O)[C@@H](N)Cc1c[nH]cn1)[C@@H](C)O)C(C)C)C(=O)N[C@@H](C)C(=O)N[C@@](C)(Cc1ccccc1)C(=O)N[C@H](C(=O)N[C@H](C(=O)N[C@@H](CCC(=O)O)C(=O)NCC(=O)NCC(N)=O)C(C)C)C(C)C [compound 43] (H-H[Aib]EGS[αMeF]TSDV[αMeS]S[αMeF]LEGEAA[αMeK]E[αMeF]IA[αMeF]VVEGG-NH2)
≥ 26 | ≥ 26 | ≥ 26 | ≥ 26 | 7 | 6.25 | 8.15 |  |  |  |  |  |  | CCCCCCCCCCCCCCCCCC(=O)NCCOCCOCC(=O)NCCOCCOCC(=O)NCCOCCOCC(=O)NCCCC[C@H](NC(=O)[C@H](C)NC(=O)[C@H](C)NC(=O)[C@H](CCC(=O)O)NC(=O)CNC(=O)[C@H](CCC(=O)O)NC(=O)[C@H](CC(C)C)NC(=O)[C@H](Cc1ccc(O)cc1)NC(=O)[C@H](CO)NC(=O)[C@](C)(CO)NC(=O)[C@@H](NC(=O)[C@H](CC(=O)O)NC(=O)[C@H](CO)NC(=O)[C@@H](NC(=O)[C@](C)(Cc1ccccc1)NC(=O)[C@H](CO)NC(=O)CNC(=O)[C@H](CCC(=O)O)NC(=O)C(C)(C)NC(=O)[C@@H](N)Cc1c[nH]cn1)[C@@H](C)O)C(C)C)C(=O)N[C@@H](CCC(=O)O)C(=O)N[C@@](C)(Cc1ccccc1)C(=O)N[C@H](C(=O)N[C@@H](C)C(=O)N[C@@](C)(Cc1ccccc1)C(=O)N[C@H](C(=O)N[C@H](C(=O)N[C@@](C)(CCCCN)C(=O)NCC(=O)NCC(N)=O)C(C)C)C(C)C)[C@@H](C)CC [compound 53] (H-H[Aib]EGS[αMeF]TSDV[αMeS]SYLEGEAAK([AEEA-AEEA-AEEA-Stearoyl])E[αMeF]IA[αMeF]VV[αMeK]GG-NH2)
 |  |  |  |  |  |  | 8.9 | 9.96 | 7.89 | 412 | 376 | 448 | CCCCCCCCCCCCCC(=O)N[C@@H](CCC(=O)NCCOCCOCC(=O)NCCOCCOCC(=O)NCCCC[C@H](NC(=O)[C@H](C)NC(=O)[C@@H](NC(=O)[C@](C)(Cc1ccccc1)NC(=O)[C@H](CCC(=O)O)NC(=O)[C@](C)(CCCCN)NC(=O)[C@H](C)NC(=O)[C@H](C)NC(=O)[C@H](CCC(=O)O)NC(=O)CNC(=O)[C@H](CCC(=O)O)NC(=O)[C@H](CC(C)C)NC(=O)[C@H](CCCCNC(=O)COCCOCCNC(=O)COCCOCCNC(=O)CC[C@H](NC(=O)CCCCCCCCCCCCC)C(=O)O)NC(=O)[C@H](CO)NC(=O)[C@](C)(CO)NC(=O)[C@@H](NC(=O)[C@H](CC(=O)O)NC(=O)[C@H](CO)NC(=O)[C@@H](NC(=O)[C@](C)(Cc1ccccc1)NC(=O)[C@H](CO)NC(=O)CNC(=O)[C@H](CCC(=O)O)NC(=O)C(C)(C)NC(=O)[C@@H](N)Cc1c[nH]cn1)[C@@H](C)O)C(C)C)[C@@H](C)CC)C(=O)N[C@H](C(=O)N[C@H](C(=O)N[C@@H](CCC(=O)O)C(=O)NCC(=O)NCC(N)=O)C(C)C)C(C)C)C(=O)O [compound 408] (H-H[Aib]EGS[αMeF]TSDV[αMeS]SK([AEEA-AEEA-γGlu-Myristoyl])LEGEAA[αMeK]E[αMeF]IAK([AEEA-AEEA-γGlu-Myristoyl])VVEGG-NH2)
 |  |  |  |  |  |  | 36.1 | 39.5 | 32.6 | 216 | 183 | 249 | CCCCCCCCCCCCCCCC(=O)N[C@@H](CCC(=O)NCCOCCOCC(=O)NCCOCCOCC(=O)NCCCC[C@H](NC(=O)[C@H](C)NC(=O)[C@@H](NC(=O)[C@](C)(Cc1ccccc1)NC(=O)[C@H](CCC(=O)O)NC(=O)[C@](C)(CCCCN)NC(=O)[C@H](C)NC(=O)[C@H](C)NC(=O)[C@H](CCC(=O)O)NC(=O)CNC(=O)[C@H](CCC(=O)O)NC(=O)[C@H](CC(C)C)NC(=O)[C@H](CCCCNC(=O)COCCOCCNC(=O)COCCOCCNC(=O)CC[C@H](NC(=O)CCCCCCCCCCCCCCC)C(=O)O)NC(=O)[C@H](CO)NC(=O)[C@](C)(CO)NC(=O)[C@@H](NC(=O)[C@H](CC(=O)O)NC(=O)[C@H](CO)NC(=O)[C@@H](NC(=O)[C@](C)(Cc1ccccc1)NC(=O)[C@H](CO)NC(=O)CNC(=O)[C@H](CCC(=O)O)NC(=O)C(C)(C)NC(=O)[C@@H](N)Cc1c[nH]cn1)[C@@H](C)O)C(C)C)[C@@H](C)CC)C(=O)N[C@H](C(=O)N[C@H](C(=O)N[C@@H](CCC(=O)O)C(=O)NCC(=O)NCC(N)=O)C(C)C)C(C)C)C(=O)O [compound 409] (H-H[Aib]EGS[αMeF]TSDV[αMeS]SK([AEEA-AEEA-γGlu-Palmitoyl])LEGEAA[αMeK]E[αMeF]IAK([AEEA-AEEA-γGlu-Palmitoyl])VVEGG-NH2)
 |  |  |  |  |  |  | 187 | 248 | 126 | 780 | 698 | 862 | CCCCCCCCCCCCCCCCCC(=O)N[C@@H](CCC(=O)NCCOCCOCC(=O)NCCOCCOCC(=O)NCCCC[C@H](NC(=O)[C@H](C)NC(=O)[C@@H](NC(=O)[C@](C)(Cc1ccccc1)NC(=O)[C@H](CCC(=O)O)NC(=O)[C@](C)(CCCCN)NC(=O)[C@H](C)NC(=O)[C@H](C)NC(=O)[C@H](CCC(=O)O)NC(=O)CNC(=O)[C@H](CCC(=O)O)NC(=O)[C@H](CC(C)C)NC(=O)[C@H](CCCCNC(=O)COCCOCCNC(=O)COCCOCCNC(=O)CC[C@H](NC(=O)CCCCCCCCCCCCCCCCC)C(=O)O)NC(=O)[C@H](CO)NC(=O)[C@](C)(CO)NC(=O)[C@@H](NC(=O)[C@H](CC(=O)O)NC(=O)[C@H](CO)NC(=O)[C@@H](NC(=O)[C@](C)(Cc1ccccc1)NC(=O)[C@H](CO)NC(=O)CNC(=O)[C@H](CCC(=O)O)NC(=O)C(C)(C)NC(=O)[C@@H](N)Cc1c[nH]cn1)[C@@H](C)O)C(C)C)[C@@H](C)CC)C(=O)N[C@H](C(=O)N[C@H](C(=O)N[C@@H](CCC(=O)O)C(=O)NCC(=O)NCC(N)=O)C(C)C)C(C)C)C(=O)O [compound 410] (H-H[Aib]EGS[αMeF]TSDV[αMeS]SK([AEEA-AEEA-γGlu-Stearoyl])LEGEAA[αMeK]E[αMeF]IAK([AEEA-AEEA-γGlu-Stearoyl])VVEGG-NH2)
